Test results published in patent US20260232578A1, “COMPOSITIONS AND METHODS FOR TRANSMUCOSAL ABSORPTION” (Tonix Pharma Limited, priority 2012, published 2026).
Counter-ions that a name gives are not always drawn. Like-named read-outs stand apart in the source and are kept apart here.

What was measured:
in vivo [1] = conditions: female, beagle, dog, 0.14 mg/kg
Procedure: The protocol was designed as outlined in Table 23.
The method requires a lithium heparinized plasma sample volume of 200 μl. The extraction is a liquid liquid extraction with hexane, and the extracts are injected using an HPLC system and an […] (Applied Biosystems) for the MS/MS detection, with a “Onyx monolithic Phenomenex C18 100×3.0 mm” column.
Concentrations of the samples are calculated using Watson® 7.2.0.03 directly from chromatograms after automatic integration by Analyst® 1.5.1 and expressed as ng/mL. Mean plasma concentrations will be calculated (when calculable, i.e. n>2) using individual concentrations and will be expressed with the corresponding standard deviation value and variation coefficients (when calculable, i.e. n>3) (with CV(%)=(SD/mean)×100). The individual plasma concentrations are tabulated for each dog and scheduled sampling time. Concentrations below the LLOQ are designated as “BLQ.” All BLQ concentrations are substituted by zero for calculation of the descriptive statistics of the concentrations.
Pharmacokinetic analysis is carried out using […]® (Version 4.3 (Thermo Electron Corporation)). An independent model (non compartmental analysis) is used. All BLQ values in the absorption phase are substituted by zero, except for BLQ values between evaluable concentrations, which are treated as missing values, before the calculation of the pharmacokinetic variables. The terminal BLQ values are ignored. The following pharmacokinetic parameters are calculated:
5 non-naive female dogs are used, each dog receiving the test substance by oral administration via nasogastric tube to the stomach (NG) administration, sublingual administration (SL), and by intravenous (IV) administration. There is a “wash-out” period of at least two weeks between each type of administration. Blood samples are drawn as follows:
A single NG dose of 0.14 mg/kg (under a volume of 5 ml/kg and a solution concentration of 0.028 mg/mL) is administered.
After a wash-out period of at least 2 weeks, dogs are sedated using propofol (6.5 mg/kg IV). They will be then given a single sublingual dose of 0.14 mg/kg (under a volume of 0.056 mL/kg and a solution concentration of 2.5 mg/mL).
After a wash-out period of at least 2 weeks, dogs are given a single IV dose of 0.14 mg/kg (under a volume of 1 mL/kg, bolus of approximately 30 sec, and a solution concentration of 0.14 mg/mL).
Blood sampling was designed to minimize animal suffering and to ensure the quality of the biological samples, and was adapted from basic procedures commonly used in studies performed in dogs. Serial blood samples (1 tube of approximately 5 mL) are collected from a jugular vein using vacuum tubes containing lithium heparin. After sealing each tube, the blood samples are manually agitated and stored on ice until centrifugation (within 30 minutes of sampling). The samples are centrifuged at 1500 g, at 4° C., for 10 minutes. The entire resultant plasma obtained from each tube is immediately transferred to suitably labeled polypropylene tubes (3 aliquots of plasma of at least 500 μl each), which are stored upright at approximately −80° C. and protected from light until bioanalysis.
The dogs are fasted overnight before each administration, and food is given to the dogs 4 hours after each treatment. […] In each of the three routes, a potassium phosphate buffer (pH 7.4) is used as the vehicle.
As referred to in Example 4, a study was designed in order to assess the effects of the compositions and methods of the invention. […] The pharmacokinetic parameters were then calculated. A summary of the study design is as follows:
Blood was collected in a fasted condition for all three routes of administration. […] Briefly, the method involved liquid-liquid extraction with hexane. The extracts were injected using an HPLC system and an API4000® (Applied Biosystems) for the MS/MS detection, with an “Onyx monolithic Phenomenex C18 100×3.0 mm” column.

in vivo [2] = conditions: beagle, dog; for AUC(0-t): AUCt
Procedure: Each dog was sampled at pre-dose before and after Propofol (when possible) and at 5, 10 and 20 minutes post-dose.

[3] = Procedure: The (KH2PO4) solution was prepared according to the current USP (USP 34) (Table 25). Briefly, 50 mL of 0.2 M monobasic potassium phosphate (KH2PO4) was mixed with 39.1 mL of 0.2 M NaOH, and water was added to bring the solution to a final volume of 200 mL. During the test, the change in the pH of the solution also was measured for each addition.
[4] = 25° C.; cited from earlier work
[5] = iv, Cyclobenzaprine plasma concentration
[6] = po, Cyclobenzaprine plasma concentration

CN(C)CCC=C1c2ccccc2C=Cc2ccccc21 [cyclobenzaprine HCl]
AUC(0-inf) (in vivo [1]; iv, AUCinf): 44.9 ± 4.15 ng·h/mL | AUC(0-t) (in vivo [1]; iv, AUCt): 43.5 ng·h/mL | clearance (in vivo [1]; iv, Cl): 52.3 mL/min/kg | concentration at 10 min (in vivo [1]; [5]): 21.1 ng/mL | concentration at 20 min (in vivo [1]; [5]): 17.3 ng/mL | concentration at 0.5 h (in vivo [1]; [5]): 14.3 ng/mL | concentration at 1 h (in vivo [1]; [5]): 9 ng/mL | concentration at 2 h (in vivo [1]; [5]): 6.5 ng/mL | concentration at 3 h (in vivo [1]; [5]): 4.43 ng/mL | concentration at 24 h (in vivo [1]; [5]): 0.1 ng/mL | Cl (Cl/F) (in vivo [1]; po): 1206 mL/min/kg | Kel (in vivo [1]; po): 0.4782 h⁻¹ | CL/F (in vivo [1]; po, Cl (Cl/F)): 1210 mL/min/kg | concentration at 6 h (in vivo [1]; [6]): 0.15 ng/mL | concentration at 8 h (in vivo [1]; [6]): 0.126 ng/mL | concentration at 10 h (in vivo [1]; [6]): 0.112 ng/mL | Vd/F (in vivo [1]; po, Vd (Vd/F)): 151 L/kg | half-life (in vivo [1]; po, t1/2): 86.9 min | AUCt (in vivo [2]): 22.78 ng·h/mL | Bioavailability F % IV without propofol vs sublingual with propofol (in vivo [2]): 197.0% | Cmax (in vivo [2]): 92.23 ng/mL | Tmax (in vivo [2]): 10 min | AUC(0-t) (in vivo [2]): 17.4 ng·h/mL | Cmax (in vivo [2]; Cmax): 75.6 ng/mL | AUCt (in vivo [2]; iv): 11.56 ng·h/mL | Cmax (in vivo [2]; iv): 40.10 ng/mL | Tmax (in vivo [2]; iv): 5 min | AUC(0-t) (in vivo [2]; iv): 7.67 ng·h/mL | Cmax (in vivo [2]; iv, Cmax): 26.8 ng/mL | pH value ([3]; 10 g added to 100 mL Phosphate Buffer Solution pH 7.4): 6.43 | pH value ([3]; 10 g added to 100 mL purified water): 3.31 | pH value ([3]; 15 g added to 100 mL Phosphate Buffer Solution pH 7.4): 6.29 | pH value ([3]; 15 g added to 100 mL purified water): 3.24 | pH value ([3]; 20 g added to 100 mL Phosphate Buffer Solution pH 7.4): 6.21 | pH value ([3]; 20 g added to 100 mL purified water): 3.16 | pH value ([3]; 25 g added to 100 mL Phosphate Buffer Solution pH 7.4): 6.15 | pH value ([3]; 25 g added to 100 mL purified water): 3.11 | pH value ([3]; 30 g added to 100 mL Phosphate Buffer Solution pH 7.4): 6.10 | pH value ([3]; 30 g added to 100 mL purified water): 3.07 | solubility state in solution ([3]; […] at 7.4 containing K2HPO4 or KH2PO4): close to its saturation point | acid dissociation constant (pKa) for the amine group [4]: approximately 8.5
